Data on 17 molecules can be found in patent US5858751A, “Compositions and methods for producing sialyltransferases” (The Regents of the University of California, priority 1995, dated 1999).

Assay [1] concerns rat ST3N. Briefly: Acceptor specificity of soluble rat ST3N fusion protein. The settings on record: acceptor 0.2 mM; relative to LNT.
The subject of assay [2] is ST3N. The assay can be described thus: Acceptor specificity of ST3N in COS-1 media.
For assay [3], the target named is T1, ST3 (Homo sapiens, UniProt Q11206).
T1 sequence (Q11206 1-332 isoform Q11206-2): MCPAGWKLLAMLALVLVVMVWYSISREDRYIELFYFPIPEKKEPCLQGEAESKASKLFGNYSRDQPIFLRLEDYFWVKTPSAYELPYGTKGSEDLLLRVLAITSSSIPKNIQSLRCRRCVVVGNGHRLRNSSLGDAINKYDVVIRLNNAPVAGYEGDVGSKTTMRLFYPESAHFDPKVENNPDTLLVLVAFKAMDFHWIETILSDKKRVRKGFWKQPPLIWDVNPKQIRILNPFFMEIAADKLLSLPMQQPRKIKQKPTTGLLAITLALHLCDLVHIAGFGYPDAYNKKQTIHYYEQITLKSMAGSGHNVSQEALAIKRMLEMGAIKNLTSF
Briefly: Acceptor specificity of soluble ST3 (AZ3) in COS-1 media. Particulars: for sialic acid incorporation by ST3 enzyme: data not shown.

The target of assay [4] is T2, ST3O (Sus scrofa, UniProt Q02745).
T2 sequence (Q02745 28-343 limits assumed): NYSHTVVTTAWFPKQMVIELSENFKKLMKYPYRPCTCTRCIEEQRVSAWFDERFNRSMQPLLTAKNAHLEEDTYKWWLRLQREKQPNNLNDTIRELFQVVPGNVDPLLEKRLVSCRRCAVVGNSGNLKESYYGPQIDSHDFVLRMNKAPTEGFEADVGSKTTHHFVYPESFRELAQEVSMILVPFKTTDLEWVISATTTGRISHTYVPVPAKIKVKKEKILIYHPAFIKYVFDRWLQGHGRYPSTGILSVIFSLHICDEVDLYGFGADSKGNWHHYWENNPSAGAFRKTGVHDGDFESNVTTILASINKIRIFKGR
The assay can be described thus: Acceptor specificity of ST3O in COS-1 media.

The target of assay [5] is T3, human ST3N (Homo sapiens, UniProt Q11203).
T3 sequence (Q11203 62-375): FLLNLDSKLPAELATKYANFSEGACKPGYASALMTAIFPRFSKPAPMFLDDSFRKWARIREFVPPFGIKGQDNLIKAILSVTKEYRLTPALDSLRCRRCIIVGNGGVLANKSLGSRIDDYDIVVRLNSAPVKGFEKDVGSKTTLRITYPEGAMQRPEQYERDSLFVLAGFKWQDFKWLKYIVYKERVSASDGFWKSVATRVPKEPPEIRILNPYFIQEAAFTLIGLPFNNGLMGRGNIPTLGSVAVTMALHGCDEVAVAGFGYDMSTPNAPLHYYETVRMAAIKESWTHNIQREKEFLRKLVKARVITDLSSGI
The assay can be described thus: Acceptor specificity of soluble human ST3N fusion protein. Particulars: acceptor 0.2 mM; relative to LNT.

For assay [6], the target named is T4, human ST3O (Homo sapiens, UniProt Q11201).
T4 construct: lacked the first 44 amino acids of the open reading frame; made in house; host or cells: COS-1 cells (transient, culture medium)
T4 sequence (Q11201 45-340): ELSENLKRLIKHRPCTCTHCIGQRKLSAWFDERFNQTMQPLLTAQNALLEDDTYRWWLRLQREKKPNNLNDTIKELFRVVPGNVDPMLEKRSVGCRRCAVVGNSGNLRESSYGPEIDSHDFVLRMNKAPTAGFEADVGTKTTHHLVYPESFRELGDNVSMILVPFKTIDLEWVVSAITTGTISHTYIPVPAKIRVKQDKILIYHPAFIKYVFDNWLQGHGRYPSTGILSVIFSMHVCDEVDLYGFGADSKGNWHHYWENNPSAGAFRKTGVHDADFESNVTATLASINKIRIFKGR
The assay can be described thus: Acceptor specificity of soluble human ST3O. The settings on record: acceptor 0.2 mM. In kind it is biochemical.

Assay [7] deals with T5, porcine ST3O (Sus scrofa, UniProt Q02745).
T5 sequence (Q02745 28-343 limits assumed): T2 sequence (Q02745 28-343 limits assumed)
The assay can be described thus: Acceptor specificity of recombinant porcine ST3O. Particulars: acceptor 0.2 mM. In kind it is biochemical.

The target of assay [8] is T6, α2,3-N sialyltransferase (Rattus norvegicus, UniProt Q02734).
T6 construct: made in house; host or cells: COS-1 cells (transient, culture medium)
T6 sequence (Q02734 29-374 limits assumed): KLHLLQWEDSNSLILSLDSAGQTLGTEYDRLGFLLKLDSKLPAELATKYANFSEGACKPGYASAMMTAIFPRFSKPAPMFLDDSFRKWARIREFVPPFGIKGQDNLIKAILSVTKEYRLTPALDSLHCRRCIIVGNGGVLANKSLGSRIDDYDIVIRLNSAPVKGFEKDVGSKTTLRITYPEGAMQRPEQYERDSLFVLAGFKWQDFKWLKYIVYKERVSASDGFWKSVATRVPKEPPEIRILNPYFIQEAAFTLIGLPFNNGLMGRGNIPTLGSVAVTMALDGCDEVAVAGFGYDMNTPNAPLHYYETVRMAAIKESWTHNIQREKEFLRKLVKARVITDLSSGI
The assay can be described thus: Acceptor use by soluble α2,3-N sialyltransferase secreted from COS-1 cells (pBD122). In kind it is biochemical. The settings on record: concentrated COS-1 media.

Regarding `CC(=O)N[C@H]1[C@H](O[C@H]2[C@@H](O)[C@@H](CO)O[C@@H](O[C@H]3[C@H](O)[C@@H](O)C(O)O[C@@H]3CO)[C@@H]2O)O[C@H](CO)[C@@H](O)[C@@H]1O[C@@H]1O[C@H](CO)[C@H](O)[C@H](O)[C@H]1O` (stereo partly drawn) [LNT, lacto-N-tetrose], the “Relative activity (%) Rat” value in assay [1] is 100%. Moreover, the “Relative rate (%) ST3N” value in assay [2] (acceptor 0.2 mM) and in assay [2] (acceptor 2.0 mM) was 100% throughout. In addition, the “Relative rate (%) ST3” value came out at 0% in assay [3] (acceptor 0.2 mM) and 2.3% in assay [3] (acceptor 2.0 mM). For the same molecule, the “Relative rate (%) ST3O” value in assay [4] (acceptor 0.2 mM) is given as 0.5%; in assay [4] (acceptor 2.0 mM) it was 3%. In assay [5], the “Relative Activity (%) Human” value was 100%.
In the case of Galβ1,4Glcβ1-Cer [LacCer], the “Relative rate (%) ST3N” value in assay [2] (acceptor 0.2 mM) turned out to be 0%. The “Relative rate (%) ST3” value in assay [3] (acceptor 0.2 mM) amounted to 4%. Further, in assay [4] (acceptor 0.2 mM), the “Relative rate (%) ST3O” value was found to be 0.1%.
For the molecule “GalNAcβ1,4(NeuAcα2-3)Galβ1,4Glcβ1-Cer [GM2]”, the “Relative rate (%) ST3N” value in assay [2] (acceptor 0.2 mM) is on record as 0%. For the same molecule, in assay [4] (acceptor 0.2 mM), the “Relative rate (%) ST3O” value stood at 0.3%.
On to “intact fetuin: glycoprotein examined as acceptor”, for which the “sialic acid incorporation by ST3 enzyme” value in assay [3] was “not any significant amount of sialic acid incorporated”.
In the case of `CC(=O)N[C@H]1C(O)O[C@H](CO)[C@@H](O[C@@H]2O[C@H](CO)[C@H](O)[C@H](O)[C@H]2O)[C@@H]1O` (stereo partly drawn) [Galβ1,4GlcNAc], in assay [6], the “Relative Activity (%) Human” value was 0%. The entries for the “Relative rate (%) ST3” value in assay [3] (acceptor 0.2 mM) and in assay [3] (acceptor 2.0 mM) were 4% and 23%, respectively. Further, the “Relative rate (%) ST3O” value is 0% in assay [4] (acceptor 0.2 mM) and 0.9% in assay [4] (acceptor 2.0 mM). The “Relative Activity (%) Porcine” value in assay [7] was 0%.
As for GalNAcβ1,4Galβ1,4Glcβ1-Cer [Asialo-GM2], the “Relative rate (%) ST3N” value in assay [2] (acceptor 0.2 mM) is on record as 0%. Further, the “Relative rate (%) ST3” value in assay [3] (acceptor 0.2 mM) is given as 2%. Besides, the “Relative rate (%) ST3O” value in assay [4] (acceptor 0.2 mM) worked out at 0.5%.
As for `CC(=O)N[C@H]1[C@H](O[C@H]2[C@@H](O)[C@@H](CO)O[C@@H](O[C@H]3[C@H](O)[C@@H](O)C(O)O[C@@H]3CO)[C@@H]2O)O[C@H](CO)[C@@H](O[C@@H]2O[C@@H](C)[C@@H](O)[C@@H](O)[C@@H]2O)[C@@H]1O[C@@H]1O[C@H](CO)[C@H](O)[C@H](O)[C@H]1O` (stereo partly drawn) [Galβ1,3(Fucα1,4)GlcNAcβ1,3Galβ1,4Glc], the “Relative rate (%) ST3N” value in assay [2] (acceptor 0.2 mM) and in assay [2] (acceptor 2.0 mM) was 0% throughout. Besides, the “Relative rate (%) ST3” value in assay [3] (acceptor 2.0 mM) is on record as 0%. Besides, the “Relative rate (%) ST3O” value in assay [4] (acceptor 0.2 mM) and in assay [4] (acceptor 2.0 mM) was 0% in each case.
On to “Asialofetuin: glycoprotein acceptor (Galβ1,3GalNAc-Thr/Ser and Galβ1,4GlcNAc-R)”, for which the “Relative rate (%) ST3” value in assay [3] (acceptor 0.2 mM) amounted to 92%. Further, the “Relative rate (%) ST3O” value in assay [4] (acceptor 0.2 mM) is 26%.
Take `CC(=O)N[C@H]1[C@H](O[C@H]2[C@@H](O)[C@@H](CO)O[C@@H](O[C@H]3[C@H](O)[C@@H](O)C(O)O[C@@H]3CO)[C@@H]2O)O[C@H](CO)[C@@H](O[C@@H]2O[C@H](CO)[C@H](O)[C@H](O)[C@H]2O)[C@@H]1O[C@@H]1O[C@@H](C)[C@@H](O)[C@@H](O)[C@@H]1O` (stereo partly drawn) [Galβ1,4(Fucα1,3)GlcNAcβ1,3Galβ1,4Glc]: the “Relative rate (%) ST3N” value in assay [2] (acceptor 0.2 mM) and in assay [2] (acceptor 2.0 mM) was 0% throughout. For the same molecule, the “Relative rate (%) ST3” value is 0.1% in assay [3] (acceptor 0.2 mM) and 1% in assay [3] (acceptor 2.0 mM). The “Relative rate (%) ST3O” value in assay [4] (acceptor 0.2 mM) and in assay [4] (acceptor 2.0 mM) was 0% in each case.
On to `CC(=O)N[C@H]1C(O)O[C@H](CO)[C@@H](O)[C@@H]1O[C@@H]1O[C@H](CO)[C@H](O)[C@H](O)[C@H]1O` (stereo partly drawn) [Galβ1,3GlcNAc], for which the “Relative rate (%) ST3” value in assay [3] (acceptor 0.2 mM) worked out at 0%. The “Relative rate (%) ST3O” value in assay [4] (acceptor 0.2 mM) amounted to 2%.
For the molecule “Asialo-α1 -acid glycoprotein: glycoprotein acceptor (Galβ1,4GlcNAc-R)”, the “Relative rate (%) ST3” value in assay [3] (acceptor 0.2 mM) was determined as 51%. Further, the “Relative rate (%) ST3O” value in assay [4] (acceptor 0.2 mM) is given as 0%. Besides, the “use as acceptor by secreted enzyme” value in assay [8] is listed as “capable of sialylating”.
With `CC(=O)N[C@H]1[C@H](O[C@H]2[C@@H](O)[C@@H](CO)O[C@@H](O[C@H]3[C@H](O)[C@@H](O)C(O)O[C@@H]3CO)[C@@H]2O)O[C@H](CO)[C@@H](O[C@@H]2O[C@H](CO)[C@H](O)[C@H](O)[C@H]2O)[C@@H]1O` (stereo partly drawn) [LNnT, Galβ1,4GlcNAcβ1,3Galβ1,4Glc], in assay [1], the “Relative activity (%) Rat” value is given as 4%. The entries for the “Relative rate (%) ST3N” value in assay [2] (acceptor 0.2 mM) and in assay [2] (acceptor 2.0 mM) were 4% and 18%, respectively. Besides, the entries for the “Relative rate (%) ST3” value in assay [3] (acceptor 0.2 mM) and in assay [3] (acceptor 2.0 mM) were 24% and 49%, respectively. Besides, the “Relative rate (%) ST3O” value worked out at 0% in assay [4] (acceptor 0.2 mM) and 0.5% in assay [4] (acceptor 2.0 mM). Moreover, the “Relative Activity (%) Human” value in assay [5] is on record as 5%.
Consider “Galβ1,3GalNAcβ1,4(NeuAcα2-3)Galβ1,4Glcβ1-Cer [GM1]”, for which the “Relative rate (%) ST3N” value in assay [2] (acceptor 0.2 mM) is recorded as 0%. In assay [6], the “Relative Activity (%) Human” value amounted to 41%. In assay [3] (acceptor 0.2 mM), the “Relative rate (%) ST3” value is recorded as 27%. Also, in assay [4] (acceptor 0.2 mM), the “Relative rate (%) ST3O” value is reported as 47%. For the same molecule, the “Relative Activity (%) Porcine” value in assay [7] was 44%.
As to “.varies.1 -acid glycoprotein: intact glycoprotein examined as acceptor”, the “sialic acid incorporation by ST3 enzyme” value in assay [3] was “not any significant amount of sialic acid incorporated”.
On to “Galβ1,3GalNAcβ1,4Galβ1,4Glcβ,1-Cer [Asialo-GM1]”, for which the “Relative rate (%) ST3N” value in assay [2] (acceptor 0.2 mM) worked out at 8%. Besides, the “Relative Activity (%) Human” value in assay [6] worked out at 84%. The “Relative rate (%) ST3” value in assay [3] (acceptor 0.2 mM) is reported as 64%. The “Relative rate (%) ST3O” value in assay [4] (acceptor 0.2 mM) is 88%. The “Relative Activity (%) Porcine” value in assay [7] stood at 85%.
For the molecule NeuAcα2,3Galβ1,4Glcβ1-Cer [GM3], in assay [2] (acceptor 0.2 mM), the “Relative rate (%) ST3N” value worked out at 0%. In addition, the “Relative rate (%) ST3” value in assay [3] (acceptor 0.2 mM) was determined as 0%. In assay [4] (acceptor 0.2 mM), the “Relative rate (%) ST3O” value is on record as 0.1%.
On to `CC(=O)N[C@H]1C(O)O[C@H](CO)[C@H](O)[C@@H]1O[C@@H]1O[C@H](CO)[C@H](O)[C@H](O)[C@H]1O` (stereo partly drawn) [Galβ1,3GalNAc], for which, in assay [6], the “Relative Activity (%) Human” value is on record as 100%. Besides, the “Relative rate (%) ST3” value in assay [3] (acceptor 0.2 mM) and in assay [3] (acceptor 2.0 mM) was 100% throughout. For the same molecule, the “Relative rate (%) ST3O” value in assay [4] (acceptor 0.2 mM) and in assay [4] (acceptor 2.0 mM) was 100% throughout. The “Relative Activity (%) Porcine” value in assay [7] is listed as 100%.
